Patent publication US20250121024A1, “COMBINED USE OF IMIQUIMOD AND A CASEIN HYDROLYSATE FOR THE TREATMENT OF CONDYLOMA” (NTD LABS, S.L.U., priority 2021, published 2025)

Test system: condyloma
Assay: Controlled, observational clinical trials of topical 5% imiquimod, oral casein hydrolysate and their combination in patients suffering from condyloma
Assay type: in vivo, human
Settings: for Total resolution rate of condyloma (%): percentage of patients with total resolution
Method: The efficacy of the combination of imiquimod and a casein hydrolysate, according to the characteristics defined in the present invention, for the treatment of patients with condyloma was evaluated. Specifically, it was evaluated whether oral supplementation with the casein hydrolysate in patients treated with topical 5% imiquimod produced an improvement in treatment efficacy (rate of complete resolution of condyloma) and/or reduced recurrences (rate of recurrences) after the treatment.
A controlled, observational clinical trial was carried out, which included 44 female patients suffering from condyloma, who were divided into two groups: • Imiquimod group (I) (24 patients): treated with 5% imiquimod cream (3 times per week for up to 16 weeks). • Imiquimod+casein hydrolysate group (I+C) (20 patients): treated with 5% imiquimod cream (3 times per week for up to 16 weeks) plus oral casein hydrolysate (6 g once per day, for 6 months).
Likewise, a controlled, observational clinical trial was carried out with 20 patients suffering from condyloma (Group casein hydrolysate (C)) who were treated only with oral casein hydrolysate for 6 months (6 grams, once per day).
A commercially available casein hydrolysate (HuPaVir®) and a commercially available 5% imiquimod cream (Aldara® 5% cream) were used in the study.
In particular, the evaluation of patients at 4, 8, 12 and 16 weeks after starting treatment is included, as well as after 6 months (for group C some points are not available), wherein the percentage of patients with total resolution of condyloma during treatment (up to 16 weeks) and the recurrence rate 6 months after starting the treatment is reported.

Compound: CC(C)Cn1cnc2c(N)nc3ccccc3c21 [I, 1-(2-methylpropyl)-1H-imidazo[4,5-c]quinoline-4-amine]
- Total resolution rate of condyloma (%) (4 weeks after starting treatment): 8.33%
- Recurrence rate (%) (6 months after starting the treatment): 14.3%
- Total resolution rate of condyloma (%) (8 weeks after starting treatment): 28.57%
- Total resolution rate of condyloma (%) (12 weeks after starting treatment): 58.33%
- Total resolution rate of condyloma (%) (12 weeks after starting treatment, listed as imiquimod): 58%
- Total resolution rate of condyloma (%) (16 weeks after starting treatment): 72.72%
